Patent US20210000912A1, “Compositions And Methods For Prophylaxis Or Treatment Of Pain” (Interk Peptide Therapeutics Limited, priority 2017, published 2021)
“Also recorded” adds a separate entry of the source.

Key:
PKG1α (h) = molecular target: T1, PKG1α (h) (Homo sapiens, UniProt Q13976); assay: PKG1α kinase activity assay, cell free; format: biochemical
T1 construct: purchased Eurofins Pharma Discovery Services UK Ltd (contract assay service)
T1 sequence (Q13976 1-671): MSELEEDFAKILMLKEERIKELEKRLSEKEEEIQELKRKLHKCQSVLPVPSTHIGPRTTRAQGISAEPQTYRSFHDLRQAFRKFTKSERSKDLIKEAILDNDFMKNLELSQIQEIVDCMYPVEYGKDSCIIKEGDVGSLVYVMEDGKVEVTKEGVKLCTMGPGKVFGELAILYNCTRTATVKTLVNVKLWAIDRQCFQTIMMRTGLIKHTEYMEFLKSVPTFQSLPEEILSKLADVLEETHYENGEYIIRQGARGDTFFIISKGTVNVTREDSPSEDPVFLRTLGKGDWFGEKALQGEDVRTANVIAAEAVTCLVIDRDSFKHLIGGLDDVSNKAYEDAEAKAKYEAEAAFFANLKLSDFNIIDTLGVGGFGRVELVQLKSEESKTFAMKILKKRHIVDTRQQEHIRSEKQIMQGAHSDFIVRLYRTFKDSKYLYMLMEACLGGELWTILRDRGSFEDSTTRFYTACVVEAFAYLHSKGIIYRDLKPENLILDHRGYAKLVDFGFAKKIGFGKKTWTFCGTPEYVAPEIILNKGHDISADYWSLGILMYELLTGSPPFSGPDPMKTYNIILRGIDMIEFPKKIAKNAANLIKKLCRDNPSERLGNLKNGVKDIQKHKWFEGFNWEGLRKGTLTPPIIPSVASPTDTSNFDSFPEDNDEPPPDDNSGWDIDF
Description: (§1) The capacity of test peptides to inhibit the activity of the kinases PKG1α, PKG1β, and Src family kinases in a cell free assay was assessed. The test peptides were amidated at their C-terminal end (indicated by “—NH2”) unless otherwise noted. Kinase activity assays were conducted by Eurofins Pharma Discovery Services UK Ltd (Dundee Technology Park, Dundee, United Kingdom) and Reaction Biology Corp. (Malvern, Pa., USA).
(§2) All test peptides are prepared to 50× final assay concentration in 100% DMSO. This working stock of the test compound is added to assay wells as the first component in the reaction, followed by the remaining components of the respective assay protocols described below. There is no pre-incubation step between the test peptide and the kinase prior to initiation of the reaction. The kinases are diluted in buffer (20 mM MOPS, 1 mM EDTA, 0.01% Brij-35, 5% Glycerol, 0.1% β-mercaptoethanol, 1 mg/mL BSA) prior to addition to the reaction mix.
(§3) Positive control wells contain all components of the reaction, except the test peptide of interest. However, DMSO (at a final concentration of 2%) is included in positive control wells to control for solvent effects. Negative control wells contain all components of the reaction, with a reference inhibitor (staurosporine) replacing the test peptide. This abolishes kinase activity and establishes a base-line (0% kinase activity). Kinase assay protocols (Eurofins Pharma Discovery Services UK Ltd, Dundee Technology Park, Dundee, United Kingdom) are described below. Of the Src family kinases, only the assay protocol for c-Src is shown.
(§4) PKG1α (h) is incubated with 8 mM MOPS pH 7.0, 0.2 mM EDTA, 10 μM cGMP, 200 μM peptide RRRLSFAEPG, 10 mM magnesium acetate and [γ-^33P]-ATP (specific activity approx. 500 cpm/pmol, concentration as required). The reaction is initiated by the addition of the MgATP mix. After incubation for 40 minutes at room temperature, the reaction is stopped by the addition of 3% phosphoric acid solution. A 10 μL aliquot of the reaction is then spotted onto a P30 filtermat and washed three times for 5 mins in 75 mM phosphoric acid and once in methanol prior to drying and scintillation counting.

PKG1β (h) = molecular target: T2, PKG1β (h) (Homo sapiens, UniProt Q13976); assay: PKG1β kinase activity assay, cell free; format: biochemical
T2 construct: purchased Eurofins Pharma Discovery Services UK Ltd (contract assay service)
T2 sequence (Q13976 1-686 isoform Q13976-2): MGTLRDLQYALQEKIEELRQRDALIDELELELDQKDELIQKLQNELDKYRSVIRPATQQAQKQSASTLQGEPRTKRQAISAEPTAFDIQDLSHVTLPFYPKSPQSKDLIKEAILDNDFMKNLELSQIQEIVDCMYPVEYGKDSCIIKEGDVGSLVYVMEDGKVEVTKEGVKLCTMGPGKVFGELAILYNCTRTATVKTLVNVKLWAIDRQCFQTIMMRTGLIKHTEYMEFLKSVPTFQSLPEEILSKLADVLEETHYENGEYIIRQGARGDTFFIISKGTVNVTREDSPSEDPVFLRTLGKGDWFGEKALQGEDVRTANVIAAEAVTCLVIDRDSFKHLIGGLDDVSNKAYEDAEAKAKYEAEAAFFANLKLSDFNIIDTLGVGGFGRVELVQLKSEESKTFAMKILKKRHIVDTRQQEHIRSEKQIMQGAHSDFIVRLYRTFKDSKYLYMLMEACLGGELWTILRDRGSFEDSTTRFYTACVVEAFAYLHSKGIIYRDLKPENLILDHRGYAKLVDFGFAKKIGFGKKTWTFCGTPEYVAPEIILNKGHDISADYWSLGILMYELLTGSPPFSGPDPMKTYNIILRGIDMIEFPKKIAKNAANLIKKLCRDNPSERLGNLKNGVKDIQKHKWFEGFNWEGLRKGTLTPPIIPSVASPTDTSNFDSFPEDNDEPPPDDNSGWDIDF
Description: as §1, §2, §3
as §4, with “PKG1b(h)” for “PKG1α (h)”, “μM” for “μM peptide”

c-Src (h) = molecular target: T3, c-Src (h) (Homo sapiens, UniProt P12931); assay: c-Src kinase activity assay, cell free; format: biochemical
T3 construct: purchased Eurofins Pharma Discovery Services UK Ltd (contract assay service)
T3 sequence (P12931 whole entry): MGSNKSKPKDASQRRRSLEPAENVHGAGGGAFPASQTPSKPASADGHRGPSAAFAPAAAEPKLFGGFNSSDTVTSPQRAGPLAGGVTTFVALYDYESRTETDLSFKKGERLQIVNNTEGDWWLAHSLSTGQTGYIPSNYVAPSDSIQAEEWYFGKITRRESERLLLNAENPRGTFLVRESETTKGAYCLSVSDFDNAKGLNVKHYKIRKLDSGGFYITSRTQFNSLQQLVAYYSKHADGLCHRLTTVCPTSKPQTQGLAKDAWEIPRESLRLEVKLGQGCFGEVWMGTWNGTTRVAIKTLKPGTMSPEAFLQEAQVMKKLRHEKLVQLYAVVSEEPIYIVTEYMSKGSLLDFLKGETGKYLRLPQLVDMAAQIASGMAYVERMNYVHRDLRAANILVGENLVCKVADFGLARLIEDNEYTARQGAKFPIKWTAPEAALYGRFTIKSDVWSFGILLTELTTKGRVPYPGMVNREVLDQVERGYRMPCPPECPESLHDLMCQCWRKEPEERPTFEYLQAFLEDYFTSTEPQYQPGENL
Description: as §1, §2, §3
as §4, with “c-Src (h)” for “PKG1α (h)”, “EDTA, 250” for “EDTA, 10”, “μM KVEKIGEGTYGVVYK (Cdc2 peptide),” for “μM cGMP, 200 μM peptide RRRLSFAEPG,”, “mM MgAcetate” for “mM magnesium acetate”, “5 minutes” for “5 mins”

[1] = Resistance to simulated gastric fluid; format: in vitro ADME
Description: Test 14 Arg peptides consisting of 14 contiguous L- or D-arginine amino acids were tested for resistance to simulated gastric fluid (porcine pepsin in a HCl and NaCl solution) at a pH of 2.01 for a period of 24 hours. Negligible degradation of each peptide was observed by exposure to the simulated gastric fluid over the 24 hour test period.

CFA-injected mice [2] = assay: Grip strength testing in CFA study; format: in vivo, C57Bl/6 mice; conditions: intra-peritoneal, CFA study
Description: Forepaw grip strength was determined using a grip strength meter (DFIS-2 series digital force gauge, Columbus Instruments, Columbus, Ohio). The animals' forelimbs were placed on a horizontal bar connected to a force gauge. The animal was the gently pulled away from the bar and the peak force required for a release was recorded. Each mouse was tested 3 times, with a 1 min inter-trial interval (Martinez-Huenchullan, S. F., et al., “Utility and reliability of non-invasive muscle function tests in high-fat-fed mice”. Experimental Physiology, 2017. 102(7): p. 773-778). The average peak tension (g), and tension normalised to body weight were compared.

CFA-injected mice [3] = assay: CFA inflammatory pain model, incapacitance testing

Structure (SMILES) | IC50 (PKG1α (h)) [nM] | IC50 (PKG1β (h)) [nM] | IC50 (c-Src (h)) [nM] | remaining at 1 h ([1]; pig, simulated gastric fluid with porcine pepsin, simulated gastric fluid pH 2.01, 1 hr, read-out: % of intact peptide observed) [%] | remaining at 4 h ([1]; pig, simulated gastric fluid with porcine pepsin, simulated gastric fluid pH 2.01, 4 hrs, read-out: % of intact peptide observed) [%] | remaining at 24 h ([1]; pig, simulated gastric fluid with porcine pepsin, simulated gastric fluid pH 2.01, 24 hrs, read-out: % of intact peptide observed) [%] | % of intact peptide observed ([1]; simulated gastric fluid pH 2.01, time 0) [%] | grip strength compared to vehicle control (CFA-injected mice [2]) | effectiveness in incapacitance test, morphine versus IK01400, pooled data (CFA-injected mice [3]; first 30 minutes after injection) | hyperactivity (CFA-injected mice [3]; mice, intra-peritoneal) | effectiveness in incapacitance test, morphine versus IK01400 (8.6 mg/kg) (CFA-injected mice [3]; second hour after administration)
N=C(N)NCCC[C@@H](N)C(=O)N[C@H](CCCNC(=N)N)C(=O)N[C@H](CCCNC(=N)N)C(=O)N[C@H](CCCNC(=N)N)C(=O)N[C@H](CCCNC(=N)N)C(=O)N[C@H](CCCNC(=N)N)C(=O)N[C@H](CCCNC(=N)N)C(=O)N[C@H](CCCNC(=N)N)C(=O)N[C@H](CCCNC(=N)N)C(=O)N[C@H](CCCNC(=N)N)C(=O)N[C@H](CCCNC(=N)N)C(=O)N[C@H](CCCNC(=N)N)C(=O)N[C@H](CCCNC(=N)N)C(=O)N[C@H](CCCNC(=N)N)C(N)=O [IKD01400, rrrrrrrrrrrrrr-NH2] | 11 | 10 | 6 | 98.9 | 98.7 | 97.5 | 98.79 | – | – | – | –
CN1CC[C@]23c4c5ccc(O)c4O[C@H]2[C@@H](O)C=C[C@H]3[C@H]1C5 [morphine] | – | – | – | – | – | – | – | increased grip strength | more effective | observed to induce hyperactivity | less effective than IK01400; also recorded: reduced
